The results in this text go back to BindingDB's records for PubMed 1501121 (Sanofi Recherche, 1992).

For assay [1], the target named is Sodium channel protein type 10 subunit alpha (Rattus norvegicus, UniProt Q62968).
Assay [2] has as its target T1, Alpha-2C adrenergic receptor (Rattus norvegicus, UniProt P22086).
T1 sequence (P22086 whole entry): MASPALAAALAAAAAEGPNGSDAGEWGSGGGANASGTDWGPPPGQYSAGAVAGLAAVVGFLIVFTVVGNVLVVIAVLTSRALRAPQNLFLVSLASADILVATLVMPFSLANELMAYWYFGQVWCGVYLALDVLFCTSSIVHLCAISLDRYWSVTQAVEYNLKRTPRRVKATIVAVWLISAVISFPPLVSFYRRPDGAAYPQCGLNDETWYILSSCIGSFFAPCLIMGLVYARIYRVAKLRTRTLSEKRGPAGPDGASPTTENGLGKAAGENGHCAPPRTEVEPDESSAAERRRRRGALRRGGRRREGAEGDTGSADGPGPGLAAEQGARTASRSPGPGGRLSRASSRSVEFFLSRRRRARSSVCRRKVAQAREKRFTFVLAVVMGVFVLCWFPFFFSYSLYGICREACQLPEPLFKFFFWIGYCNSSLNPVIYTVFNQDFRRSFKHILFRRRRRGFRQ

Assay [3] concerns the target 5-hydroxytryptamine receptor 2A (Rattus norvegicus, UniProt P14842).
Assay [4] concerns the target D(2) dopamine receptor (Rattus norvegicus, UniProt P61169).
For assay [5], the target named is T2, 5-hydroxytryptamine receptor 2C (Sus scrofa, UniProt G7ZKZ7).
T2 sequence (G7ZKZ7 whole entry): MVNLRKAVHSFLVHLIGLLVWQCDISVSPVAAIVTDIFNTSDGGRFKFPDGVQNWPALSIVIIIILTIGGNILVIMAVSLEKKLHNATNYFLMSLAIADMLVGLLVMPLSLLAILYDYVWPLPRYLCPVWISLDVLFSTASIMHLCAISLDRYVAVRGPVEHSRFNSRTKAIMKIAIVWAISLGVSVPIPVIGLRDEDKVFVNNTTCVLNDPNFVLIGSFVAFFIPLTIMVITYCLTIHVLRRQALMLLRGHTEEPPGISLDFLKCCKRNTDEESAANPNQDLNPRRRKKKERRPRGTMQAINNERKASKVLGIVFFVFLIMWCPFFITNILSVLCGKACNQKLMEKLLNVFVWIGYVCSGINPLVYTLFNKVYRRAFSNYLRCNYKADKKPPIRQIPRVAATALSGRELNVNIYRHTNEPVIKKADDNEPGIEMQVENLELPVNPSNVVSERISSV

Assay [6] addresses D(1A) dopamine receptor (Rattus norvegicus, UniProt P18901).
The target in assay [7] is 5-hydroxytryptamine 1D receptor (Bos taurus, UniProt Q8MI13).
The target of assay [8] is 5-hydroxytryptamine receptor 1B (Rattus norvegicus, UniProt P28564).
Assay [9] concerns the target T3, Alpha-1A adrenergic receptor (Rattus norvegicus, UniProt P43140).
T3 sequence (P43140 whole entry): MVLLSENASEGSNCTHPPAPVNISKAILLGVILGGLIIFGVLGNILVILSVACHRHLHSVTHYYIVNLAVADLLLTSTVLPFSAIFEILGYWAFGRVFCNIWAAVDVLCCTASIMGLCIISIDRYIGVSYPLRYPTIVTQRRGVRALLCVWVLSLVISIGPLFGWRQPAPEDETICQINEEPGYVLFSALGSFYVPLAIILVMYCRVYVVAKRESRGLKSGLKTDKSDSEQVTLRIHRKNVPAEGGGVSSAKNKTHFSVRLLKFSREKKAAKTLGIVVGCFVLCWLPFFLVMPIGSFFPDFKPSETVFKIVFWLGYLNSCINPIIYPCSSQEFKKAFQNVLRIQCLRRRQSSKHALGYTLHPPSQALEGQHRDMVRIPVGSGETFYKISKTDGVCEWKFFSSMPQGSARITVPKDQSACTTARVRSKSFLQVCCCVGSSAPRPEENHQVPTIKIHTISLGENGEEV

Assay [10] has as its target Histamine H1 receptor (Rattus norvegicus, UniProt P31390).

SMILES strings stand for the structures. A value given as a limit tells only on which side of the number the result lay.

Chain of D(1A) dopamine receptor (P18901 whole entry): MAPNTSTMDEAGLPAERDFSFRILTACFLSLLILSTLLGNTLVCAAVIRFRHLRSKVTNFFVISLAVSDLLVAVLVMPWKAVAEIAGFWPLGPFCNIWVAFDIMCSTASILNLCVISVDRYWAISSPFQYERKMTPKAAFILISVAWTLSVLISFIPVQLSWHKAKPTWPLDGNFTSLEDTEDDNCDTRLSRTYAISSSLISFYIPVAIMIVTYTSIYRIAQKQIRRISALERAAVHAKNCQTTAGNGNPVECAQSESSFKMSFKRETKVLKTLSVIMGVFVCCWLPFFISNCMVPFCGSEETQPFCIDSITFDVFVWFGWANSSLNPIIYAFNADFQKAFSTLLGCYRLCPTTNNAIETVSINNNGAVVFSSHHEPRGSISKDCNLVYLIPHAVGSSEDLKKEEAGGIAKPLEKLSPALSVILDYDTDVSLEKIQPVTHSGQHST
Chain of D(2) dopamine receptor (P61169 whole entry): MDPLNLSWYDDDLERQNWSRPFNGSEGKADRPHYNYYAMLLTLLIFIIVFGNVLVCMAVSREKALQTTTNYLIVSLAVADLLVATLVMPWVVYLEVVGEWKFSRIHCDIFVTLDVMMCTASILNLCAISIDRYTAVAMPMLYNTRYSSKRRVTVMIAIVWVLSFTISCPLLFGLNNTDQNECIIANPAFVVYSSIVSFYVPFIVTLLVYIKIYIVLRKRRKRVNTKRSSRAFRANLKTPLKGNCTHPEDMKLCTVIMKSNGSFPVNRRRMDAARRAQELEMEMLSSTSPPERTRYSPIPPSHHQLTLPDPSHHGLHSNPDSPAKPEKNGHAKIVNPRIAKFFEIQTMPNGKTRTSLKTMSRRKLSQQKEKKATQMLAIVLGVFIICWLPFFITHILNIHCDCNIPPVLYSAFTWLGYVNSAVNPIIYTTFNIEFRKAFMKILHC
Chain of Sodium channel protein type 10 subunit alpha (Q62968 whole entry): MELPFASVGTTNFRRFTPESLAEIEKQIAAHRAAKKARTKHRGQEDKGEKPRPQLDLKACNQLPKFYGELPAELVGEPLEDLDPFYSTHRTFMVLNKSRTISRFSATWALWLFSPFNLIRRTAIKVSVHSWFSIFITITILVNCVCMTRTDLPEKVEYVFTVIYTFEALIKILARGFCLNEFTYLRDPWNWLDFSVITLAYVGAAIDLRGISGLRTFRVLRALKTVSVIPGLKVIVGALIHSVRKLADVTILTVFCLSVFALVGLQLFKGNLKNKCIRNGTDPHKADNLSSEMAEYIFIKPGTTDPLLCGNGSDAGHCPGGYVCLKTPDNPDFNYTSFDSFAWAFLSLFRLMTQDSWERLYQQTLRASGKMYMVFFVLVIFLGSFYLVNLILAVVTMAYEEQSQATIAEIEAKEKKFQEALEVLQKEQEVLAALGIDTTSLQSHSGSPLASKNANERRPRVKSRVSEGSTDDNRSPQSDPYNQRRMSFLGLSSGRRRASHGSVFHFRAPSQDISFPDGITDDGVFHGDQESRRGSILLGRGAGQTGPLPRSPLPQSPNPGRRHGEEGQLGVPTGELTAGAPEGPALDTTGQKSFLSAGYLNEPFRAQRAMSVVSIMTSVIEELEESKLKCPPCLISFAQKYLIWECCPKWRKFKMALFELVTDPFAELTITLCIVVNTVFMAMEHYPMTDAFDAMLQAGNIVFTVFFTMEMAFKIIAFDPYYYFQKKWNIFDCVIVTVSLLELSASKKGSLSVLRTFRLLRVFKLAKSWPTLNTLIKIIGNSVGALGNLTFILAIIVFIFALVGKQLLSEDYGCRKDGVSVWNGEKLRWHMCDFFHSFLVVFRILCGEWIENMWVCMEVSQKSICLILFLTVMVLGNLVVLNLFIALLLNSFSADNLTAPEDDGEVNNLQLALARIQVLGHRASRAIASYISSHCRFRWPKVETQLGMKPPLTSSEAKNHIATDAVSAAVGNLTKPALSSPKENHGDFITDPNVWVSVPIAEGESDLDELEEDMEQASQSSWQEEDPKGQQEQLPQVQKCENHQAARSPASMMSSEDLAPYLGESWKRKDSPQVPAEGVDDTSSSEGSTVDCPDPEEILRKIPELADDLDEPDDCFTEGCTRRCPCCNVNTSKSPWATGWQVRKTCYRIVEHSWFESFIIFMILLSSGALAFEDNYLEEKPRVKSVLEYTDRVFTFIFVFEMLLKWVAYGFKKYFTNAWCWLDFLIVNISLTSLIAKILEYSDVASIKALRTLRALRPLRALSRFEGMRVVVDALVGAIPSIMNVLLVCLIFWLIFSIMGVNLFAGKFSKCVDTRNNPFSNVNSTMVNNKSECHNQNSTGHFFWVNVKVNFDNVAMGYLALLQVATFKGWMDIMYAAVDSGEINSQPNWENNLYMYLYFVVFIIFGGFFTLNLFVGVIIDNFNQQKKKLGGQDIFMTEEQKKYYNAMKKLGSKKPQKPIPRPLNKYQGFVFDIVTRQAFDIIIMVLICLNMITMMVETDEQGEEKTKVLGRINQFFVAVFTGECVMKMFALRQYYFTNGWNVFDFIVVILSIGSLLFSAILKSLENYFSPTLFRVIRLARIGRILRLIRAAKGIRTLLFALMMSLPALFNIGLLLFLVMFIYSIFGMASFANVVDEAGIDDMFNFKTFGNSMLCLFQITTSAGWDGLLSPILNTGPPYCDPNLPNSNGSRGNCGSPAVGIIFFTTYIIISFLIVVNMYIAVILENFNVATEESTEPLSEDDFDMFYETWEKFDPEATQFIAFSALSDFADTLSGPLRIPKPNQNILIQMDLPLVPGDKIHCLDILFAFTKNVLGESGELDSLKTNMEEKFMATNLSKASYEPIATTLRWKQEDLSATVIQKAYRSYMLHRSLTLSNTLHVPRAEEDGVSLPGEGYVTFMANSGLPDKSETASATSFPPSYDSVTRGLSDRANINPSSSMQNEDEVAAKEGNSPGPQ
Chain of 5-hydroxytryptamine receptor 1B (P28564 whole entry): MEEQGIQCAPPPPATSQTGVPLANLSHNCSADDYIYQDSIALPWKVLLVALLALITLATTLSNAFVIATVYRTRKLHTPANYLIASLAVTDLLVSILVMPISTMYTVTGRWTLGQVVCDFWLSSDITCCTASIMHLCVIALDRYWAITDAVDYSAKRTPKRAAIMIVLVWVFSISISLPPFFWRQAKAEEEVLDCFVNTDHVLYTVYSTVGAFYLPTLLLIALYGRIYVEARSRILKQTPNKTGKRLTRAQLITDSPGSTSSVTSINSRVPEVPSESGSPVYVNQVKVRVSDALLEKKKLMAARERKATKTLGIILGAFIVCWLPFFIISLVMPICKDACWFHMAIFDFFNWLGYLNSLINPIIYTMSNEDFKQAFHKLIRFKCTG
Chain of 5-hydroxytryptamine 1D receptor (Q8MI13 whole entry): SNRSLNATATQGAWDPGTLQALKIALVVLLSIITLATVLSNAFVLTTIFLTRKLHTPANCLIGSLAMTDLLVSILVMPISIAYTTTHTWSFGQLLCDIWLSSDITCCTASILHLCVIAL
Chain of 5-hydroxytryptamine receptor 2A (P14842 whole entry): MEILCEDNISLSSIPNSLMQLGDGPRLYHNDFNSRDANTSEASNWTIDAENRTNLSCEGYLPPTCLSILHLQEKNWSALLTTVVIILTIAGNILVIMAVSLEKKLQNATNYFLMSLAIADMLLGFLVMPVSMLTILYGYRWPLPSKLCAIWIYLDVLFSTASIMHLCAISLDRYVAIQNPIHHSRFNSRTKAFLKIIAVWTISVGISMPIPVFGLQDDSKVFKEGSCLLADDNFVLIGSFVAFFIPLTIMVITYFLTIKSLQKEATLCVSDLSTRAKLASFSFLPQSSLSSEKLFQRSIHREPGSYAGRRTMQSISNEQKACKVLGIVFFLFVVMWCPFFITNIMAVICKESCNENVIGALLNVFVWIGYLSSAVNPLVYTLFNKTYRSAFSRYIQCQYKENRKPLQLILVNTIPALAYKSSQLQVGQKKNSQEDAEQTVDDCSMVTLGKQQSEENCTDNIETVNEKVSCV
Chain of Histamine H1 receptor (P31390 whole entry): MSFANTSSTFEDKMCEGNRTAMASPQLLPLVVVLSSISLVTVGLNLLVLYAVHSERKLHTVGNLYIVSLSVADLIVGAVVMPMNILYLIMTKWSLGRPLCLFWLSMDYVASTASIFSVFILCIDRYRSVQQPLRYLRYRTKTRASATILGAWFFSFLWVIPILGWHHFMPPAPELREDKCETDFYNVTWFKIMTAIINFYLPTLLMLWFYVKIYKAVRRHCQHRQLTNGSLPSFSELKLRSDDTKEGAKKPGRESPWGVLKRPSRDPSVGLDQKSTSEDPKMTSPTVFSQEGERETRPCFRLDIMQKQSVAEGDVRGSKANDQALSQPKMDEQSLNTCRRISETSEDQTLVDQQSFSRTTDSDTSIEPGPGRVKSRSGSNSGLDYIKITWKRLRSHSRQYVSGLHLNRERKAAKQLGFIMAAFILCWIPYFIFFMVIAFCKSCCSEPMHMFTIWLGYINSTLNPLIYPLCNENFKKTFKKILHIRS

Take `CN(C)CCON=C(C=Cc1ccc(O)cc1)c1ccccc1F` [NSC_6438382]: the Ki – broadly, the dissociation constant of the complex between target and ligand, obtained from inhibition or displacement – in assay [1] is above 10 µM; in assay [2], 1 µM; in [3], 0.0058 µM; in [4], above 10 µM; in assay [5], 0.12 µM; in assay [6], 9 µM. The Ki in [7] was above 10 µM; in [8], above 10 µM; in assay [9], 3.4 µM; in assay [10], 5 µM.
